The source of these data is ChEMBL document CHEMBL1136655, “Synthesis of imidazopyridines and purines as potent inhibitors of leukotriene A4 hydrolase” (Bioorg Med Chem Lett, 2003).

The structures appear in SMILES notation.

The species entered for one experiment is Homo sapiens. The experiment can be described thus: Inhibition of LTB4 production from whole human blood. The class given is functional.
Another experiment relates to Mus musculus. The experiment can be described thus: Ex vivo inhibition of LTB4 production in mouse whole blood following 10 mg/kg p.o. administration. Particulars: route oral. The class given is functional.
The target in experiment [1] is T1, Leukotriene A-4 hydrolase (Homo sapiens, UniProt P09960).
T1 sequence (P09960 whole entry): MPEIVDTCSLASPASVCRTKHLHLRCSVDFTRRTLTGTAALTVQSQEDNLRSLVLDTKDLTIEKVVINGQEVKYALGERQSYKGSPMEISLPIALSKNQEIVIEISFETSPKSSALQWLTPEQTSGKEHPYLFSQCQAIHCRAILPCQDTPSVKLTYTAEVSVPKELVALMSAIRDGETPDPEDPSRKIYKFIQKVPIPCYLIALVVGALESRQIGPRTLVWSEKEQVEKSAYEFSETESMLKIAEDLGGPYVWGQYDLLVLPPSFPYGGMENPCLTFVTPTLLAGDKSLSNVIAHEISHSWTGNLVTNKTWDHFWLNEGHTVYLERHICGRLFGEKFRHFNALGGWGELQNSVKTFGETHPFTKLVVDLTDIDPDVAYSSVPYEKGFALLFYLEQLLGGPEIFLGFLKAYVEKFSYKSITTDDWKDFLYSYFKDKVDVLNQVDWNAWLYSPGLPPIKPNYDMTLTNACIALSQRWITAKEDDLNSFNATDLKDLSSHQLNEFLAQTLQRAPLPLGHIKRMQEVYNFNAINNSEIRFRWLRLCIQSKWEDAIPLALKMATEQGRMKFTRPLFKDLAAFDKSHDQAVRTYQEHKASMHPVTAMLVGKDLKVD
The experiment can be described thus: In vitro inhibition of recombinant human leukotriene A4 hydrolase.

In the case of `N#Cc1ccc2c(ncn2CCOc2ccc(Cc3ccccc3)cc2)n1`, the IC50 in the experiment filed under Homo sapiens came to 150 nM; in experiment [1], 0.8 nM. Moreover, testing at 10 mg/kg in the experiment with Mus musculus gave an inhibition in vivo of 21%.

Regarding `c1ccc(Cc2ccc(OCCn3cnc4cccnc43)cc2)cc1`, the IC50 in the experiment filed under Homo sapiens was 9150 nM; in experiment [1] it was more than 3000 nM.

Regarding `c1ccc(Cc2ccc(OCCn3cccc4ncnc3-4)cc2)cc1`, the IC50 in the experiment listed under Homo sapiens turned out to be 690 nM.

`N#Cc1nccc2c1ncn2CCOc1ccc(Cc2ccccc2)cc1`: the IC50 in the experiment listed under Homo sapiens worked out at 100 nM; in experiment [1] it was 31 nM. In addition, the inhibition in vivo at 10 mg/kg with Mus musculus stood at 84%.

In the experiment listed under Homo sapiens, `c1ccc(Cc2ccc(OCCn3cnc4ncccc43)cc2)cc1` came in with an IC50 of 330 nM. The same compound came in with an inhibition in vivo at 10 mg/kg with Mus musculus of 18%.

Consider `Oc1ccc2ncn(CCOc3ccc(Cc4ccccc4)cc3)c2n1`, for which the IC50 amounted to 940 nM in the experiment listed under Homo sapiens and 500 nM in experiment [1]. For the same compound, the inhibition in vivo at 10 mg/kg in the experiment on Mus musculus was determined as 72%.

`c1ccc(Cc2ccc(OCCn3cnc4ccccc43)cc2)cc1`: 13200 nM corresponded to half-maximal inhibition in the experiment listed under Homo sapiens (IC50). In addition, 10 mg/kg produced 46% inhibition in vivo in the experiment on Mus musculus.

In turn, `c1ccc(Cc2ccc(OCCn3cnc4cnccc43)cc2)cc1` yielded an IC50 in the experiment filed under Homo sapiens of 330 nM. In the experiment on Mus musculus, this compound returned an inhibition in vivo at 10 mg/kg of 64%.

A word on the IC50: it is the concentration needed to halve the response being measured. For orientation: inhibition in vivo means how much of the control response was suppressed.
